Assay results: ChEMBL document CHEMBL1201862, “PubChem BioAssay data set” (2004)
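Results reflect a 48-hour exposure of cells in 96-well plates to compound at five concentrations. GI50 marks 50% less growth.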 The source made the active and inactive calls. No stated cut-off is given here; in the data, active = GI50 up to about 1.1 µM and inactive = higher.

Key:
Assay in all cases: growth of human tumour cells (NCI), 48 h
[1] = test system: M14
[2] = test system: SN12C
[3] = test system: RXF 393
[4] = test system: NCI-H522
[5] = test system: RPMI-8226
[6] = test system: CAKI-1
[7] = test system: Malme-3M
[8] = test system: SNB-19
[9] = test system: ACHN
[10] = test system: MOLT-4
[11] = test system: A498
[12] = test system: K562
[13] = test system: DLD-1
[14] = test system: SK-MEL-2
[15] = test system: HOP-62
[16] = test system: SW-620
[17] = test system: SK-OV-3

Measured: GI50

COc1ccc(S(=O)(=O)NNS(C)(=O)=O)cc1
inactive: [1] > 100 µM | [2] > 100 µM | [3] > 100 µM | [4] > 100 µM | [5] > 100 µM | [6] > 100 µM | [7] > 100 µM | [8] > 100 µM | [9] > 100 µM | [10] > 100 µM | [11] > 100 µM | [12] > 100 µM | [13] 87.5 µM | [14] 60.5 µM | [15] > 100 µM | [16] > 100 µM

Cc1cccc(C)c1NC(=O)C(=O)CC(=O)c1cccc([N+](=O)[O-])c1
inactive: [1] > 100 µM | [2] > 100 µM | [4] > 100 µM | [5] > 100 µM | [6] > 100 µM | [7] > 100 µM | [8] > 100 µM | [9] > 100 µM | [10] > 100 µM | [11] > 100 µM | [12] > 100 µM | [13] > 100 µM | [14] > 100 µM | [15] > 100 µM | [16] > 100 µM

COc1ccc(NC(=O)COC(=O)c2cccc3c(=O)c4ccccc4[nH]c23)cc1
inactive: [1] 29.6 µM | [2] 27.5 µM | [3] 15.3 µM | [4] 17.9 µM | [6] 19.5 µM | [7] 23.4 µM | [8] 30.1 µM | [9] 21.1 µM | [10] 14.2 µM | [11] 11.3 µM | [12] 17.2 µM | [17] 30.2 µM | [13] 13.9 µM | [15] 23.8 µM | [16] 22.2 µM

CN(C)CCC(CCN(C)C)=NOC(=O)c1ccccc1
inactive: [1] > 100 µM | [2] > 100 µM | [3] > 100 µM | [4] > 100 µM | [5] > 100 µM | [6] > 100 µM | [7] > 100 µM | [8] > 100 µM | [9] > 100 µM | [10] > 100 µM | [11] > 100 µM | [12] > 100 µM | [17] > 100 µM | [13] > 100 µM | [14] > 100 µM | [15] > 100 µM | [16] > 100 µM

Cc1ccc(S(=O)(=O)c2ccc(NC(=O)SCCC(=O)O)cc2)cc1
inactive: [1] > 100 µM | [2] > 100 µM | [3] > 100 µM | [4] > 100 µM | [5] > 100 µM | [6] > 100 µM | [8] > 100 µM | [9] > 100 µM | [10] > 100 µM | [11] > 100 µM | [12] > 100 µM | [13] > 100 µM | [14] > 100 µM | [15] > 100 µM | [16] > 100 µM

CCOC(=O)C1=C(C(=O)OCC)C2c3ccccc3C=CN2C(C(=O)OCC)=C(SC)S1 (stereo not given)
inactive: [1] 89.1 µM | [2] 98.4 µM | [3] 73.1 µM | [4] 24.4 µM | [5] 17.8 µM | [6] > 100 µM | [7] > 100 µM | [8] > 100 µM | [9] > 100 µM | [10] 21.6 µM | [12] 41.8 µM | [17] > 100 µM | [13] > 100 µM | [14] > 100 µM | [15] > 100 µM | [16] 92.9 µM

O=C(N/N=C(/c1nc2ccc(Cl)cc2[nH]c1=O)C(O)c1ccc(Cl)cc1Cl)c1ccncc1 (stereo not given)
inactive: [1] > 100 µM | [3] > 100 µM | [5] > 100 µM | [6] > 100 µM | [7] > 100 µM | [8] > 100 µM | [9] > 100 µM | [10] > 100 µM | [11] > 100 µM | [12] > 100 µM | [17] > 100 µM | [13] > 100 µM | [14] > 100 µM | [15] > 100 µM | [16] > 100 µM

COC1=C(Br)C(=O)c2nc(C)ccc2C1=O
inactive: [1] 15 µM | [2] 15.7 µM | [3] 11.2 µM | [4] 6.97 µM | [6] 15.6 µM | [7] 16.8 µM | [8] > 40.9 µM | [9] 10.7 µM | [10] 2.4 µM | [11] 22 µM | [12] 8.67 µM | [17] 19.4 µM | [13] 5.33 µM | [14] 16.2 µM | [15] > 44.6 µM | [16] 8.15 µM

CC(Oc1ccc2c(=O)cc(-c3ccccc3)oc2c1)C(=O)O (stereo not given)
inactive: [1] > 100 µM | [2] > 100 µM | [3] > 100 µM | [4] > 100 µM | [6] > 100 µM | [7] > 100 µM | [8] > 100 µM | [9] > 100 µM | [10] > 100 µM | [11] > 100 µM | [12] > 100 µM | [17] > 100 µM | [13] > 100 µM | [15] > 100 µM | [16] > 100 µM

CSc1nc(-c2ccccc2)nc(N2CCOCC2)[s+]1
inactive: [1] > 100 µM | [2] > 100 µM | [3] 21.3 µM | [4] 32.8 µM | [7] > 100 µM | [8] > 100 µM | [9] > 100 µM | [10] 26.8 µM | [11] > 100 µM | [12] 37.6 µM | [17] > 100 µM | [13] 91.8 µM | [14] > 100 µM | [15] > 100 µM | [16] > 100 µM

COc1ccc(CC(=O)c2cc(OC)c(OC)cc2C)cc1OC
inactive: [1] > 100 µM | [2] 55.1 µM | [4] 38 µM | [5] 65.3 µM | [6] > 100 µM | [7] > 100 µM | [8] 68.4 µM | [9] 29.4 µM | [10] 44.8 µM | [11] > 100 µM | [12] 57.5 µM | [17] > 100 µM | [13] > 100 µM | [14] > 100 µM | [15] > 100 µM | [16] > 100 µM

Cc1cccc2[n+]1[C@H]1[C@H]([C@@H]3O[C@H]1c1ccccc13)[S+]([O-])N2 (stereo not given in full)
inactive: [3] 89.1 µM | [4] 34.8 µM | [5] 10.8 µM | [7] 28.6 µM | [8] 37.9 µM | [9] 57.7 µM | [10] 38.2 µM | [11] 93.3 µM | [12] 23 µM | [17] > 100 µM | [13] > 100 µM | [14] 25.2 µM | [15] 48.1 µM | [16] > 100 µM

CC(=O)N1C/C(=C\c2ccc(N(C)C)cc2)C(=O)/C(=C/c2ccc(N(C)C)cc2)C1
inactive: [1] 40.1 µM | [2] 72.3 µM | [3] 41.6 µM | [5] > 100 µM | [6] 41.1 µM | [7] 75.7 µM | [8] 24.8 µM | [9] 87.5 µM | [10] 51.4 µM | [11] 33.5 µM | [12] 60 µM | [17] 55.7 µM | [13] 68.1 µM | [15] > 100 µM | [16] 41.5 µM
